Patent US20220340597A1, “HEXAHYDRO-1H-PYRAZINO[1,2-A]PYRAZINE COMPOUNDS FOR THE TREATMENT OF AUTOIMMUNE DISEASE” (Hoffmann-La Roche Inc., priority 2019, published 2022)

Legend:
[1] = biological target: T1, human TLR8 (Homo sapiens, UniProt Q9NR97); test: HEK293-Blue-hTLR-8 cells assay
T1 sequence (Q9NR97 27-1041): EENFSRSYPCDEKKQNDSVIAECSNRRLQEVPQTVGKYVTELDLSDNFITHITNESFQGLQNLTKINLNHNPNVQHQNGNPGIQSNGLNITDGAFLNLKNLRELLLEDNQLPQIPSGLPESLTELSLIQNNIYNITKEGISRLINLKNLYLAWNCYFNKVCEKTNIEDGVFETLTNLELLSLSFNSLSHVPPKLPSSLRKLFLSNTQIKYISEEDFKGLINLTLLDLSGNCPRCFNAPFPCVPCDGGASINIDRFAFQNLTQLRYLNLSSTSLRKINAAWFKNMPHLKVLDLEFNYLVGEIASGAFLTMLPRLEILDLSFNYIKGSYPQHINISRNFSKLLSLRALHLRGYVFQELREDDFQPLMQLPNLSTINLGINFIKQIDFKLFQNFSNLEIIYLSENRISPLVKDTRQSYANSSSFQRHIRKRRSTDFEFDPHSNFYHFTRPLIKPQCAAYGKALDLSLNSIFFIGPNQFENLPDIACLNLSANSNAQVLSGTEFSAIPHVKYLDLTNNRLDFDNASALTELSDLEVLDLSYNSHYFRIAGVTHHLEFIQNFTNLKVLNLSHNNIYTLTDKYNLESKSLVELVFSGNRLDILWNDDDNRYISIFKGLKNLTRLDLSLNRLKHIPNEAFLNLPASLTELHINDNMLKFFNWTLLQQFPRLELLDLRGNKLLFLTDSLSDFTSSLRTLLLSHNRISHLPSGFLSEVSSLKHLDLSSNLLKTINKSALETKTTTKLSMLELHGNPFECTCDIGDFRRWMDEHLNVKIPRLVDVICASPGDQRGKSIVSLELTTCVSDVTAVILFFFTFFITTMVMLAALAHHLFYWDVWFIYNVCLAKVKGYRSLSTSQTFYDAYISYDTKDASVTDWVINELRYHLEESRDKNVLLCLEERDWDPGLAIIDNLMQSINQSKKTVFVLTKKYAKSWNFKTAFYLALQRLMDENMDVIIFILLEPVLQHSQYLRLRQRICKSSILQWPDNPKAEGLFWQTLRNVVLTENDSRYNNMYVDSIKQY

[2] = biological target: T2, human TLR7 (Homo sapiens, UniProt Q9NYK1); test: HEK293-Blue-hTLR-7 cells assay; format: cell-based; details: HEK293-Blue-hTLR7 cells, R848 stimulation, 20 hrs, SEAP reporter; read-out: HEK/hTLR7 IC50
T2 construct: host or cells: HEK293 (HEK-Blue hTLR7)
T2 sequence (Q9NYK1 27-1049): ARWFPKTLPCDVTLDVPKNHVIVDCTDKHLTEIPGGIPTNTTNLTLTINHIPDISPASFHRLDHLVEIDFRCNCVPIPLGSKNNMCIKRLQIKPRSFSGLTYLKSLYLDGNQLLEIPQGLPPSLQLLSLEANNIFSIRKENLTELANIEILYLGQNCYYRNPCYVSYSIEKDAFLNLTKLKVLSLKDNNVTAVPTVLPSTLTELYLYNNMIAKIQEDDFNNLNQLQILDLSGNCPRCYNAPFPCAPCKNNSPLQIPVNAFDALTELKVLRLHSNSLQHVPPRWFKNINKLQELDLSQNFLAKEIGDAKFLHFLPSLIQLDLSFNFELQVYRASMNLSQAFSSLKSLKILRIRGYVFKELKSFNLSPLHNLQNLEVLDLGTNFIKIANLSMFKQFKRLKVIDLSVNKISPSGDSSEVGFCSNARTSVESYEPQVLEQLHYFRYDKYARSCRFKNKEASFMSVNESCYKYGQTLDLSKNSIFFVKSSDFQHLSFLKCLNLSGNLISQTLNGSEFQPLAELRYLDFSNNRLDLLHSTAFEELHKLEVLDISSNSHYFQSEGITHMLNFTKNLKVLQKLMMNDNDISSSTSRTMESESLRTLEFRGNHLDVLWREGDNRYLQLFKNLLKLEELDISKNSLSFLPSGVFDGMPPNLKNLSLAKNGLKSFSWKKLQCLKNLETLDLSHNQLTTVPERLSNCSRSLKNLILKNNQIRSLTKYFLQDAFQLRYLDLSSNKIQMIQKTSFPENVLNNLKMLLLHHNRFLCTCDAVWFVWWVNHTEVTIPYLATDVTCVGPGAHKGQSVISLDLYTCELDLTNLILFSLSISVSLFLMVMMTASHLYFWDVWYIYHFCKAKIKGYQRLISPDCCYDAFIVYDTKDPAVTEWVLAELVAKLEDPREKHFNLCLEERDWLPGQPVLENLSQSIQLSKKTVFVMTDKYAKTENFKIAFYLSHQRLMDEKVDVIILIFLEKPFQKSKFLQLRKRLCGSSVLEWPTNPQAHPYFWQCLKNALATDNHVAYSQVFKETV
Protocol: The following tests were carried out in order to determine the activity of the compounds of formula (I) and (Ia) in HEK293-Blue-hTLR-7/8/9 cells assay.
HEK293-Blue-hTLR-7 cells assay:
A stable HEK293-Blue-hTLR-7 cell line was purchased from InvivoGen (Cat. #: hkb-htlr7, San Diego, Calif., USA). These cells were originally designed for studying the stimulation of human TLR7 by monitoring the activation of NF-κB. A SEAP (secreted embryonic alkaline phosphatase) reporter gene was placed under the control of the […] minimal promoter fused to five NF-κB and AP-1-binding sites. The SEAP was induced by activating NF-κB and AP-1 via stimulating HEK-Blue hTLR7 cells with TLR7 ligands. Therefore, the reporter expression was declined by TLR7 antagonist under the stimulation of a ligand, such as R848 (Resiquimod), for incubation of 20 hrs. The cell culture supernatant SEAP reporter activity was determined using QUANTI-Blue™ kit (Cat. #: rep-qb1, Invivogen, San Diego, Calif., USA) at a wavelength of 640 nm, a detection medium that turns purple or blue in the presence of alkaline phosphatase.
Then 20 μL of the supernatant from each well was incubated with […] Quanti-blue substrate solution at 37° C. for 2 hrs and the absorbance was read at 620-655 nm using a spectrophotometer. The signaling pathway that TLR7 activation leads to downstream NF-κB activation has been widely accepted, and therefore similar reporter assay was modified for evaluating TLR7 antagonist.

Row | IC50 [1] [nM] | IC50 [2] [nM] | SMILES
1 | 58 | 26 | C[C@@H]1CN(c2ccc(C#N)c3ncccc23)C[C@@H]2CN(CCc3ccc(N4CC5(CN(C)C5)C4)nc3)CCN21 [Example 22, 5-[(4R,9aS)-4-methyl-8-[2-[6-(6-methyl-2,6-diazaspiro[3.3]heptan-2-yl)-3-pyridyl]ethyl]-3,4,6,7,9,9a-hexahydro-1H-pyrazino[1,2-a]pyrazin-2-yl]quinoline-8-carbonitrile]
2 | 15 | 8 | CO[C@H]1CN(c2ccc(CCN3CCN4[C@@H](C3)CN(c3ccc(C#N)c5ncccc35)C[C@H]4C)cn2)C[C@H]1N [Example 24, 5-[(4R,9aS)-8-[2-[6-[(3R,4S)-3-amino-4-methoxy-pyrrolidin-1-yl]-3-pyridyl]ethyl]-4-methyl-3,4,6,7,9,9a-hexahydro-1H-pyrazino[1,2-a]pyrazin-2-yl]quinoline-8-carbonitrile]
3 | 25 | 13 | CO[C@H]1CN(c2ccc(CCN3CCN4[C@@H](C3)CN(c3ccc(C#N)c5ncccc35)C[C@H]4C)cn2)C[C@@H]1N [Example 25, 5-[(4R,9aS)-8-[2-[6-[(3S,4S)-3-amino-4-methoxy-pyrrolidin-1-yl]-3-pyridyl]ethyl]-4-methyl-3,4,6,7,9,9a-hexahydro-1H-pyrazino[1,2-a]pyrazin-2-yl]quinoline-8-carbonitrile]
4 | 8 | 18 | CO[C@@H]1CN(c2ccc(CCN3CCN4[C@@H](C3)CN(c3ccc(C#N)c5ncccc35)C[C@H]4C)cc2)C[C@H]1N [Example 26, 5-[(4R,9aS)-8-[2-[4-[(3R,4R)-3-amino-4-methoxy-pyrrolidin-1-yl]phenyl]ethyl]-4-methyl-3,4,6,7,9,9a-hexahydro-1H-pyrazino[1,2-a]pyrazin-2-yl]quinoline-8-carbonitrile]
5 | 13 | 21 | C[C@@H]1CN(c2ccc(C#N)c3ncccc23)C[C@@H]2CN(Cc3cccc(N4CCNCC4)n3)CCN21 [Example 27, 5-[(4R,9aS)-4-methyl-8-[(6-piperazin-1-yl-2-pyridyl)methyl]-3,4,6,7,9,9a-hexahydro-1H-pyrazino[1,2-a]pyrazin-2-yl]quinoline-8-carbonitrile]
6 | 29 | 12 | C[C@@H]1CN(c2ccc(C#N)c3ncccc23)C[C@@H]2CN(CCc3ccc(N4CC5(CNCCO5)C4)cc3)CCN21 [Example 28, 5-[(4R,9aS)-4-methyl-8-[2-[4-(5-oxa-2,8-diazaspiro[3.5]nonan-2-yl)phenyl]ethyl]-3,4,6,7,9,9a-hexahydro-1H-pyrazino[1,2-a]pyrazin-2-yl]quinoline-8-carbonitrile]
7 | 21 | 16 | C[C@@H]1CN(c2ccc(C#N)c3ncccc23)C[C@@H]2CN(c3nccc(N4CCNCC4)n3)CCN21 [Example 30, 5-[(4R,9aR)-4-methyl-8-(4-piperazin-1-ylpyrimidin-2-yl)-3,4,6,7,9,9a-hexahydro-1H-pyrazino[1,2-a]pyrazin-2-yl]quinoline-8-carbonitrile]
8 | 24 | 22 | Cc1cc(N2CCN3[C@@H](C2)CN(c2ccc(C#N)c4ncccc24)C[C@H]3C)nc(N2CCNCC2)n1 [Example 31, 5-[(4R,9aR)-4-methyl-8-(6-methyl-2-piperazin-1-yl-pyrimidin-4-yl)-3,4,6,7,9,9a-hexahydro-1H-pyrazino[1,2-a]pyrazin-2-yl]quinoline-8-carbonitrile]
9 | 11 | 16 | C[C@@H]1CN(c2ccc(C#N)c3ncccc23)C[C@@H]2CN(c3ccnc(N4CCNCC4)c3)CCN21 [Example 32, 5-[(4R,9aS)-4-methyl-8-(2-piperazin-1-yl-4-pyridyl)-3,4,6,7,9,9a-hexahydro-1H-pyrazino[1,2-a]pyrazin-2-yl]quinoline-8-carbonitrile]
10 | 8 | 10 | C[C@@H]1CN(c2ccc(C#N)c3ncccc23)C[C@@H]2CN(c3ccnc(N4CCNCC4)n3)CCN21 [Example 33, 5-[(4R,9aR)-4-methyl-8-(2-piperazin-1-ylpyrimidin-4-yl)-3,4,6,7,9,9a-hexahydro-1H-pyrazino[1,2-a]pyrazin-2-yl]quinoline-8-carbonitrile]
11 | 14 | 20 | C[C@@H]1CN(c2ccc(C#N)c3ncccc23)C[C@@H]2CN(c3cc(N4CCNCC4)ccn3)CCN21 [Example 34, 5-[(4R,9aR)-4-methyl-8-(4-piperazin-1-yl-2-pyridyl)-3,4,6,7,9,9a-hexahydro-1H-pyrazino[1,2-a]pyrazin-2-yl]quinoline-8-carbonitrile]
12 | 8 | 29 | N#Cc1ccc(N2CCN3CCN(c4cccc5c4CNC5)CC3C2)c2cccnc12 (stereo not drawn) [Example 35, 5-(8-isoindolin-4-yl-3,4,6,7,9,9a-hexahydro-1H-pyrazino[1,2-a]pyrazin-2-yl)quinoline-8-carbonitrile]
13 | 15 | 13 | CO[C@@H]1CN(c2nccc(N3CCN4[C@@H](C3)CN(c3ccc(C#N)c5ncccc35)C[C@H]4C)n2)C[C@H]1N [Example 36, 5-[(4R,9aR)-8-[2-[(3R,4R)-3-amino-4-methoxy-pyrrolidin-1-yl]pyrimidin-4-yl]-4-methyl-3,4,6,7,9,9a-hexahydro-1H-pyrazino[1,2-a]pyrazin-2-yl]quinoline-8-carbonitrile]
14 | 26 | 21 | CO[C@@H]1CN(c2ccnc(N3CCN4[C@@H](C3)CN(c3ccc(C#N)c5ncccc35)C[C@H]4C)n2)C[C@H]1N [Example 37, 5-[(4R,9aR)-8-[4-[(3R,4R)-3-amino-4-methoxy-pyrrolidin-1-yl]pyrimidin-2-yl]-4-methyl-3,4,6,7,9,9a-hexahydro-1H-pyrazino[1,2-a]pyrazin-2-yl]quinoline-8-carbonitrile]
15 | 8 | 2 | Cc1cc(N2CCNCC2)ncc1N1CCN2CCN(c3ccc(C#N)c4ncccc34)CC2C1 (stereo not drawn) [Example 38, 5-[2-(4-methyl-6-piperazin-1-yl-3-pyridyl)-3,4,6,7,9,9a-hexahydro-1H-pyrazino[1,2-a]pyrazin-8-yl]quinoline-8-carbonitrile]
